Data from the supplement of paper PMC8671470.

Columns and labels:
Settings in all cases: 72 h
NOMO-1 = assay: cell viability (% survival relative to DMSO control, bortezomib = 0%); higher = less cytotoxic
Method in brief: (§1)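 Fifteen myeloid leukaemia cell lines (10 AML, 5 CML) were seeded at a density titrated to the linear growth range. They went into 384-well plates with compounds pre-printed at 1, 10, 100, 1000 or 10000 nM in duplicate. After 72 h at 37 °C with 5% CO2, viability was read by CellTiter-Glo luminescence. Values are percent survival, with vehicle set to 100% and a 10 µM positive control to 0%, averaged over the duplicates.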

Mono-Mac-6 = assay: as above
Method in brief: as §1

THP-1 = assay: as above
Method in brief: as §1

KU-812 = assay: as above
Method in brief: as §1

[1] = system: myeloid leukemia patient primary cells Pat.6; assay: cell viability (% survival relative to DMSO control); higher = less cytotoxic
Method in brief: (§2)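 Mononuclear cells from patients with AML or CML were thawed, purified on Ficoll and placed in RPMI 1640 with 10% FBS at 10,000 cells/well on 384-well plates. The plates came pre-printed with 70 compounds at five tenfold concentrations spanning 1–10,000 nM, in duplicate, and cells were exposed for 72 h. CellTiter-Glo gave viability, scaled between DMSO wells and wells with 10 μM proteasome inhibitor. Where reported, area under the curve was obtained from log-logistic fits with four parameters using the drc and PharmacoGx R packages.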

[2] = system: myeloid leukemia patient primary cells Pat.5; assay: as above
Method in brief: as §2

[3] = system: myeloid leukemia patient primary cells Pat.14; assay: as above
Method in brief: as §2

[4] = system: myeloid leukemia patient primary cells Pat.2; assay: as above
Method in brief: as §2

[5] = system: myeloid leukemia patient primary cells Pat.9; assay: as above
Method in brief: as §2

[6] = system: myeloid leukemia patient primary cells Pat.7; assay: as above
Method in brief: as §2

[7] = system: myeloid leukemia patient primary cells Pat.13; assay: as above
Method in brief: as §2

[8] = system: myeloid leukemia patient primary cells Pat.1; assay: as above
Method in brief: as §2

[9] = system: myeloid leukemia patient primary cells Pat.8; assay: as above
Method in brief: as §2

[10] = system: myeloid leukemia patient primary cells Pat.12; assay: as above
Method in brief: as §2

[11] = system: myeloid leukemia patient primary cells Pat.3; assay: as above
Method in brief: as §2

[12] = system: myeloid leukemia patient primary cells Pat.11; assay: as above
Method in brief: as §2

[13] = system: myeloid leukemia patient primary cells Pat.15; assay: as above
Method in brief: as §2

[14] = system: myeloid leukemia patient primary cells Pat.4; assay: as above
Method in brief: as §2

[15] = system: myeloid leukemia patient primary cells Pat.10; assay: as above
Method in brief: as §2

O=c1[nH]c(=O)n([C@H]2C[C@H](O)[C@@H](CO)O2)cc1I [Idoxuridine]
cell viability (NOMO-1; 1 nM): 102%
cell viability (NOMO-1; 10 nM): 92.2%
cell viability (NOMO-1; 100 nM): 97.8%
cell viability (NOMO-1; 1000 nM): 95.3%
cell viability (NOMO-1; 10000 nM): 84.8%
cell viability (Mono-Mac-6; 1 nM): 96%
cell viability (Mono-Mac-6; 10 nM): 91.4%
cell viability (Mono-Mac-6; 100 nM): 93.5%
cell viability (Mono-Mac-6; 1000 nM): 76%
cell viability (Mono-Mac-6; 10000 nM): 52.1%
cell viability (THP-1; 1 nM): 95.4%
cell viability (THP-1; 10 nM): 100%
cell viability (THP-1; 100 nM): 99.6%
cell viability (THP-1; 1000 nM): 104%
cell viability (THP-1; 10000 nM): 90%
cell viability (KU-812; 1 nM): 92.9%
cell viability (KU-812; 10 nM): 95.9%
cell viability (KU-812; 100 nM): 102%
cell viability (KU-812; 1000 nM): 88.6%
cell viability (KU-812; 10000 nM): 66.5%
cell viability ([1]; 1 nM): 97.7%
cell viability ([1]; 10 nM): 97.7%
cell viability ([1]; 100 nM): 99.8%
cell viability ([1]; 1000 nM): 83.2%
cell viability ([1]; 10000 nM): > 100%
cell viability ([2]; 1 nM): 45.5%
cell viability ([2]; 10 nM): 10.2%
cell viability ([2]; 100 nM): 87.4%
cell viability ([2]; 1000 nM): 17.2%
cell viability ([2]; 10000 nM): 46.7%
cell viability ([3]; 1 nM): 82.1%
cell viability ([3]; 10 nM): 75.7%
cell viability ([3]; 100 nM): 92.2%
cell viability ([3]; 1000 nM): 58.6%
cell viability ([3]; 10000 nM): > 100%
cell viability ([4]; 1 nM): > 100%
cell viability ([4]; 10 nM): 90%
cell viability ([4]; 100 nM): 94.9%
cell viability ([4]; 1000 nM): 84.2%
cell viability ([4]; 10000 nM): 98.2%
cell viability ([5]; 1 nM): 34.8%
cell viability ([5]; 10 nM): 59.9%
cell viability ([5]; 100 nM): 68.1%
cell viability ([5]; 1000 nM): 35.5%
cell viability ([5]; 10000 nM): 70.3%
cell viability ([6]; 1 nM): 77.4%
cell viability ([6]; 10 nM): 69.3%
cell viability ([6]; 100 nM): 83.4%
cell viability ([6]; 1000 nM): 63%
cell viability ([6]; 10000 nM): > 100%
cell viability ([7]; 1 nM): 91%
cell viability ([7]; 10 nM): 84.4%
cell viability ([7]; 100 nM): 83.4%
cell viability ([7]; 1000 nM): 74.8%
cell viability ([7]; 10000 nM): 91.9%
cell viability ([8]; 1 nM): 84.3%
cell viability ([8]; 10 nM): 81.5%
cell viability ([8]; 100 nM): 95%
cell viability ([8]; 1000 nM): 74.3%
cell viability ([8]; 10000 nM): 95.4%
cell viability ([9]; 1 nM): 96.3%
cell viability ([9]; 10 nM): > 100%
cell viability ([9]; 100 nM): 76.2%
cell viability ([9]; 1000 nM): 68.1%
cell viability ([9]; 10000 nM): 93.1%
cell viability ([10]; 1 nM): 95.6%
cell viability ([10]; 10 nM): 95.6%
cell viability ([10]; 100 nM): 99%
cell viability ([10]; 1000 nM): 87.3%
cell viability ([10]; 10000 nM): 99.1%
cell viability ([11]; 1 nM): 19.5%
cell viability ([11]; 10 nM): 71.8%
cell viability ([11]; 100 nM): 81.6%
cell viability ([11]; 1000 nM): 83.6%
cell viability ([11]; 10000 nM): 95.1%
cell viability ([12]; 1 nM): > 100%
cell viability ([12]; 10 nM): 95.9%
cell viability ([12]; 100 nM): 96.4%
cell viability ([12]; 1000 nM): 90.7%
cell viability ([12]; 10000 nM): > 100%
cell viability ([13]; 1 nM): 92.5%
cell viability ([13]; 10 nM): 93.5%
cell viability ([13]; 100 nM): 93.7%
cell viability ([13]; 1000 nM): 90.3%
cell viability ([13]; 10000 nM): 94.7%
cell viability ([14]; 1 nM): 99.7%
cell viability ([14]; 10 nM): 82.4%
cell viability ([14]; 100 nM): 89.8%
cell viability ([14]; 1000 nM): 68.2%
cell viability ([14]; 10000 nM): 93.1%
cell viability ([15]; 1 nM): 76.4%
cell viability ([15]; 10 nM): 55.7%
cell viability ([15]; 100 nM): 61.4%
cell viability ([15]; 1000 nM): 41.6%
cell viability ([15]; 10000 nM): > 100%
